Tests used:
human P2X7 = biological target: T1, human P2X7 (Homo sapiens, UniProt Q99572); assay: ATP-induced YoPro-1 dye uptake assay, human P2X7; type: cell-based; conditions: 300 µM ATP, YoPro-1 uptake
T1 construct: expressed in transfected cells; host or cells: 1321N1 astrocytoma cells (compounds 1-17); HEK-293 cells stably expressing human P2X7 (gift of E. Adinolfi)
T1 sequence (Q99572 1-595): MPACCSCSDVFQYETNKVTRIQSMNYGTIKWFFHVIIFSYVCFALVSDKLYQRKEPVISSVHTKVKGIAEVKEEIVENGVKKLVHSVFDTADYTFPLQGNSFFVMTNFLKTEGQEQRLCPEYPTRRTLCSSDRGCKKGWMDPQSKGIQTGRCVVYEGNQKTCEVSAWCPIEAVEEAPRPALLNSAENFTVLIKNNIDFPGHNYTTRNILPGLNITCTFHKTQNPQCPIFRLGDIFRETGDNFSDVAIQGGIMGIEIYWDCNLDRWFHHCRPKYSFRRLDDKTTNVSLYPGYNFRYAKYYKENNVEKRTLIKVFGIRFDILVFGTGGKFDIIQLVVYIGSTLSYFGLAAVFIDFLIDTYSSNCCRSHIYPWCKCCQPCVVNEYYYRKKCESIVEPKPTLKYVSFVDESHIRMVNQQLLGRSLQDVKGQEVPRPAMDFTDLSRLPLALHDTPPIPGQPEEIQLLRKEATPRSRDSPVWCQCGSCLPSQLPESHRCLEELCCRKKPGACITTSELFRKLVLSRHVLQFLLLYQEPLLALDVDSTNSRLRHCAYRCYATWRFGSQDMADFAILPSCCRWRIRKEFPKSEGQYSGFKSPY
Experimental: 1321N1 astrocytoma cells and HEK-293 cells were cultured (at 37°C, 5% CO2) in Dulbecco’s modified Eagle’s medium (DMEM/F-12 with Glutamax) supplemented with 10% foetal bovine serum (FBS) and 200 unit/ml of penicillin and streptomycin antibiotics (Fisher Scientific). For stable cell line generation, cells were transfected using FuGene HD Transfection Reagent (Promega) according to the manufacturer’s protocol with plasmids encoding either human P2X4 with a C-terminal (His)10 tag ([Young et al., 2008]), human P2X7 with a C-terminal EYMPME tag (kindly provided by R.A. North) or rat P2X7 C-terminally tagged with a GFP-(His)8 tag, generated by PCR amplification of the coding sequence for rat P2X7 from a pcDNA-based expression vector ([Young et al., 2007]), adding XhoI and EcoRI sites at the 5′- and 3′- ends respectively, followed by restriction digestion and ligation into a zebrafish P2X4-GFP expression vector based on pEGFP-C1 (kindly provided by Eric Gouaux; [Kawate and Gouaux, 2006]) to replace the zebrafish P2X4 coding region with rP2X7. Transfected clones were grown in DMEM/F-12 with Glutamax medium supplemented with G-418 (Geneticin®, Fisher Scientific), 600 μg/ml and 150 μg/ml during selection and maintenance respectively. […] HEK-293 cells stably expressing human P2X7 ([Adinolfi et al., 2010]) were a kind gift from Elena Adinolfi.
Cells were plated as for the calcium influx assay (Section 2.4). Culture medium was replaced with low divalent cation containing extracellular solution (ECS-LD; 147 mM NaCl, 10 mM HEPES, 13 mM Glucose, .2 mM CaCl2, 2 mM KCl. pH = 7.4 in MilliQ water) and 5 μM Yopro-1. […] The baseline was measured with a BMG Clariostar instrument for 5–10 cycles, followed by addition of ATP (or BzATP) and recording for at least 30 further cycles (approx. 1 min per data point). The collected responses were normalized to the first data-point recorded after ATP addition. The initial gradient of the dye uptake curve was used to calculate the response to ATP.
(§1) The antagonist activity of the 17 compounds (applied at 10 µM) was assayed initially on 1321N1 astrocytoma cells stably expressing human P2X4 receptors by measuring the ATP-induced (applied at 1.2 µM) increase in Fluo-4 fluorescence due to calcium influx via P2X4, using 2 µM BX430 as a positive control (Figure 1A). […] The ATP-induced rate of uptake of YoPro-1 dye was measured upon application of at 300 µM ATP, using .1 µM A740003 as a positive control (Figure 1B).
A small library of 16 commercially available compounds was selected according to the presence of the same scaffold as GP-25, (70% similarity, Tanimoto index) and/or presence of at least one functional group we hypothesized could contribute to GP-25 activity (e.g. carboxylic acid, halogen substituent to the aromatic ring, ester, etc.) (Compounds 18–33; Table 1). […] Although the number of compounds tested was limited by their availability via a commercial source, the numerous ‘hits’ allowed for a basic structure-relationship (SAR) analysis.

human P2X4 = biological target: T2, human P2X4 (Homo sapiens, UniProt Q99571); assay: Fluo-4 ATP-induced calcium influx assay; type: cell-based; conditions: 10 µM compound; 1.2 µM ATP; 1321N1 cells
T2 construct: expressed in transfected cells
T2 sequence (Q99571 1-388): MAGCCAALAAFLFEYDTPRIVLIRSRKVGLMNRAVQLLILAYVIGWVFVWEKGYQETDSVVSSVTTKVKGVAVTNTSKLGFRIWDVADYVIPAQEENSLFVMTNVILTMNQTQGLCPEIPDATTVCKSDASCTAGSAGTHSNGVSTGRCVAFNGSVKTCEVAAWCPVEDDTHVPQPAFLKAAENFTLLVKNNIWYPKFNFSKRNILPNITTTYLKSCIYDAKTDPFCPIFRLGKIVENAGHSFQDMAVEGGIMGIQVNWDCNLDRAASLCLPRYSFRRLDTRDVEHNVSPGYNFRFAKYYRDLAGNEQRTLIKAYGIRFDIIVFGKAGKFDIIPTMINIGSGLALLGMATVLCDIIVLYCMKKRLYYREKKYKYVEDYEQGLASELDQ
Experimental: 1321N1 astrocytoma cells and HEK-293 cells were cultured (at 37°C, 5% CO2) in Dulbecco’s modified Eagle’s medium (DMEM/F-12 with Glutamax) supplemented with 10% foetal bovine serum (FBS) and 200 unit/ml of penicillin and streptomycin antibiotics (Fisher Scientific). […]
Cells were plated the day before assay into poly-lysine-coated 96-well plates at 40–65,000 cells/ml. […] A Fluoroskan Ascent FL plate reader (Fisher Scientific) equipped with a solution dispenser and an appropriate filter pair (excitation: 485 nm, emission: 538 nm) was used to record 5 s baseline followed by P2X4-mediated calcium influx measurements for 20–25 s after ATP stimulation (20 μL injection of solutions dissolved in modified Ringer’s buffer).
as §1

COC(=O)C1=C(C)NC2=C(C(=O)c3ccccc32)C1c1cc(Br)ccc1OCC(=O)O (stereo not drawn) [Compound 9, (4-bromo-2-(3-(methoxycarbonyl)-2-methyl-5-oxo-4,5-dihydro-1H-indeno(1,2-b)pyridine-4-yl)phenoxy)acetic acid]
inhibition at 30 µM (human P2X7; P2X7, approx. % inhibition at 30 μM compound, 1321N1 (1-17) or HEK (18-33) cells, read-out: % Inhibition at hP2X7): ~75% | IC50 (human P2X7): 8.7 µM | antagonist activity at human P2X4 (human P2X4): no activity

Reference: PMC9877316, “Identification of a novel P2X7 antagonist using structure-based virtual screening” (Frontiers in Pharmacology, 2023)
